Assays:
[1] = tested on: lymphoid cells differentiation; experiment: Effects in thymectomized guinea pigs; type: in vivo; conditions: thymectomized animals; 1 microg per kg i.m. daily for 10 days; 15th day
Protocol: Model: Thymectomy (removal of thymus): 30 mongrel male guinea pigs. Treatment: i.m. single daily 1 microg HM897 per kg for 10 days. Treatment of controls: normal saline 0.5 ml i.m. single daily for 10 days (there were two controls—thymectomized and sham-operated). Parameters were determined on the 15th day after onset of the treatment. Tested parameters: clinical blood examination, “active” T-lymphocytes and total T-lymphocytes (E-RFC), B-lymphocytes (EAC-RFC) were measured in blood, thymus, lymph nodes, spleen and red bone marrow.

B-lymphocytes = experiment: Ig-receptor expression on B-lymphocytes of patients with secondary immunodeficiency; type: cell-based, human; conditions: concentration 1 microg/ml
Protocol: The number of cells carrying Ig-receptors before and after incubation with the peptide has been measured (by means for FITC-labelled sera against human Ig).

[2] = tested on: hemolytic anemia induced by phenylhydrazine hydrochloride; experiment: Erythropoietic effect in hemolytic phenylhydrazine-induced anemia; type: in vivo, mice; conditions: 3rd day of administration
Protocol: This test was designed to study posthemorrhagic anemia (acute blood loss caused by taking blood from retroorbital sinus), and hemolytic anemia induced by phenylhydrazine hydrochloride (120 mg active ingredients/kg 30 Balb/c-mice and 30 CBA-mice). HM897 was injected intraperitoneally in doses of 100 and 150 microg per kg, 3 hours and 1 day after intervention modelling anemia, for 5 days. Tester parameters: RBC, leukocytes, reticulocytes, Hb, Hct

[3] = tested on: lymphoid cells in blood, thymus, lymph nodes, spleen and red bone marrow; experiment: Effect on immune system of healthy guinea pigs; type: in vivo
Protocol: Forty male guinea pigs were used in the following test. Most of the animals were treated daily with a single dose (i.m.) of Thr-Ala-Glu-Glu-Lys (SEQ ID NO:34) (HM897) […] for five days. Control animals were treated with single daily doses of 0.5 ml (i.m.) of normal saline.
Tested parameters: clinical blood examination, non-specific resistance by lysosomal cationic test; “active” T-lymphocytes and total T-lymphocytes (E-RFC), B-lymphocytes (EAC-RFC) were measured in blood, thymus, lymph nodes, spleen and red bone marrow. […] Blood lymphocyte functional activity was evaluated by leukocyte migration inhibition (LMI) with ConA. Histological examinations of thymus, spleen, lymph nodes, bone marrow and adrenals were carried out. All of these indicia were measured on 10th and 20th days after onset of the treatment.

trypsinized thymocytes = experiment: Restoration of rosette-forming capacity (E-RFC) of trypsinized thymocytes; type: cell-based, guinea-pig; conditions: concentration 10 microg/ml (most active of 1, 10, 100)
Protocol: Model: A. This work was designed to study the restoration of superficial receptors on lymphocytes after proteolytic digestion or after severe secondary immunodeficiency. Thymocytes obtained from guinea-pig were trypsinized and then their rosette-forming capacity with rabbit erythrocytes (E-RFC) was evaluated. The cells were incubated with the peptide in concentrations 1, 10 and 100 microg/ml. There were two controls—intact thymocytes (not trypsinized) and trypsinized thymocytes not incubated with the peptide.

[4] = tested on: methicillin-resistant S. aureus; experiment: Survival of mice inoculated with 10xLD50 S. aureus, HM897 pretreatment with or without Ampicillin; type: in vivo
Protocol: As in Example 8, animals were inoculated intraperitoneally with 10×LD50 of a methicillin-resistant S. aureus suspended in brain-heart infusion broth containing 5 percent mucin. Different treatments were administered s.c., i.p., or p.o., one hour later and deaths occurring during the subsequent three days were recorded. If significant prevention of mortality (>50 percent survival) was observed, the minimum effective dose (MED) was determined.
Two control experiments were conducted. HM897 was administered as a pretreatment prior to microbial inoculation, and saline was administered i.p. The number of survivors at 72 hours was determined. […] The number of survivors at 72 hours was recorded.
Survival statistics were determined over the periods of 12, 24, 36, 48, and 72 hours. […] Survival statistics were determined over periods of 12, […], 36, 48, and 72 hours. The method of conducting the experiment is illustrated in FIG. 5.

[5] = 12 HOURS after inoculation, HM897 10 mcg/kg
[6] = 12 HOURS after inoculation, HM897 100 mcg/kg
[7] = 12 HOURS after inoculation, HM897 1000 mcg/kg
[8] = 24 HOURS after inoculation, HM897 10 mcg/kg
[9] = 24 HOURS after inoculation, HM897 100 mcg/kg
[10] = 24 HOURS after inoculation, HM897 1000 mcg/kg
[11] = 36 HOURS after inoculation, HM897 10 mcg/kg
[12] = 36 HOURS after inoculation, HM897 100 mcg/kg
[13] = 36 HOURS after inoculation, HM897 1000 mcg/kg
[14] = 48 HOURS after inoculation, HM897 10 mcg/kg
[15] = 48 HOURS after inoculation, HM897 100 mcg/kg
[16] = 48 HOURS after inoculation, HM897 1000 mcg/kg
[17] = 72 HOURS after inoculation, HM897 10 mcg/kg
[18] = 72 HOURS after inoculation, HM897 100 mcg/kg
[19] = 72 HOURS after inoculation, HM897 1000 mcg/kg

Substance: Thr-Ala-Glu-Glu-Lys (TAEEK) [HM897]
- lymphoid cells differentiation [1]: does not stimulate lymphoid cells differentiation
- cells carrying Ig-receptors of different types (B-lymphocytes): significant increase
- erythrocytes [2]: 7.2 mln/ml
- lymphocyte stimulation ([3]; 10th day): predominant T-lymphocyte stimulation
- mitotic activity in lymph nodes, spleen and bone marrow ([3]; 10th day after onset of administration): increased level of mitotic activity
- lymphocyte stimulation ([3]; 20th day): both T- and B-lymphocytes
- lymphoid cells proliferation and differentiation in thymus and bone marrow ([3]; healthy guinea pigs, i.m. single daily dose for five days): stimulates lymphoid cells proliferation and differentiation in thymus and bone marrow
- biological activity (percentage of rosette-forming capacity restoration) (trypsinized thymocytes): 78/9
- Deaths [4, 5]: 0
- Survival [4, 5]: 100.00%
- Survivors [4, 5]: 18
- Deaths [4, 6]: 0
- Survival [4, 6]: 100.00%
- Survivors [4, 6]: 18
- Deaths [4, 7]: 1
- Survival [4, 7]: 94.44%
- Survivors [4, 7]: 17
- Deaths [4, 8]: 5
- Survival [4, 8]: 72.22%
- Survivors [4, 8]: 13
- Deaths [4, 9]: 3
- Survival [4, 9]: 83.33%
- Survivors [4, 9]: 15
- Deaths [4, 10]: 2
- Survival [4, 10]: 88.89%
- Survivors [4, 10]: 16
- Deaths [4, 11]: 12
- Survival [4, 11]: 33.33%
- Survivors [4, 11]: 6
- Deaths [4, 12]: 8
- Survival [4, 12]: 55.56%
- Survivors [4, 12]: 10
- Deaths [4, 13]: 7
- Survival [4, 13]: 61.11%
- Survivors [4, 13]: 11
- Deaths [4, 14]: 14
- Survival [4, 14]: 22.22%
- Survivors [4, 14]: 4
- Deaths [4, 15]: 12
- Survival [4, 15]: 33.33%
- Survivors [4, 15]: 6
- Deaths [4, 16]: 11
- Survival [4, 16]: 38.89%
- Survivors [4, 16]: 7
- Deaths [4, 17]: 14
- Survival [4, 17]: 22.22%
- Survivors [4, 17]: 4
- Deaths [4, 18]: 12
- Survival [4, 18]: 33.33%
- Survivors [4, 18]: 6
- Deaths [4, 19]: 11
- Survival [4, 19]: 38.89%
- Survivors [4, 19]: 7
- survival after normally lethal i.p. dose of S. aureus ([4]; HM897 pretreatment): dramatic improvement in survival
- Survival ([4]; at 36 hours, across HM897 dose groups): ≤ 61%
- Survival ([4]; by 72 hours, across HM897 dose groups): 22-39%
